According to PubChem BioAssay AID212 (DTP/NCI, 2004):
Where “and” joins values, the source holds several entries; their conditions need not be identical. Equal values may be shown once. Inconclusive results are not listed.

System: BDF1 mice, colon carcinoma 38 sc, T/C %
Assay: NCI In Vivo Anticancer Drug Screen. Data for tumor model Colon Carcinoma 38 (subcutaneous) in B6D2F1 (BDF1) mice
Conditions: endpoint: median tumor weight (est.), higher = larger tumour
In short: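 T/C readout: treated group (T) measurement over vehicle control group (C) measurement. Endpoint is survival or tumor size in mice bearing a transplanted tumor.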

Q: Which T/C (dose: 1.56 mg/kg/injection, schedule: Q07DX002 (ip), vehicle: alkali diluted with saline) does the source give for `Nc1nc(=S)c2[nH]cnc2[nH]1` here?
A: The T/C was 105 % of control.

Q: What about the T/C (dose: 2.0 mg/kg/injection, schedule: Q07DX002 (ip), vehicle: alkali diluted with saline) of the same compound?
A: The T/C was 63 % of control.

Q: And the T/C (dose: 2.0 mg/kg/injection, schedule: Q07DX003 (ip), vehicle: alkali diluted with saline)?
A: Its T/C is 37 % of control and 46 % of control (2×).

Q: What about the T/C (dose: 2.0 mg/kg/injection, schedule: Q07DX003 (ip), vehicle: saline) of the same compound?
A: The T/C was 52 % of control and 61 % of control.

Q: What about the T/C (dose: 3.13 mg/kg/injection, schedule: Q07DX002 (ip), vehicle: alkali diluted with saline) of the same compound?
A: Its T/C is 32 % of control.

Q: What about the T/C (dose: 4.0 mg/kg/injection, schedule: Q07DX002 (ip), vehicle: alkali diluted with saline) of the same compound?
A: Its T/C is 44 % of control.

Q: And the T/C (dose: 4.0 mg/kg/injection, schedule: Q07DX002 (ip), vehicle: saline)?
A: The T/C was 54 % of control and 78 % of control.

Q: And the T/C (dose: 4.0 mg/kg/injection, schedule: Q07DX003 (ip), vehicle: saline)?
A: Its T/C is 27 % of control and 42 % of control.

Q: What about the T/C (dose: 6.25 mg/kg/injection, schedule: Q07DX002 (ip), vehicle: alkali diluted with saline) of the same compound?
A: The T/C was 29 % of control.

Q: And the T/C (dose: 8.0 mg/kg/injection, schedule: Q07DX002 (ip), vehicle: alkali diluted with saline)?
A: Its T/C is 21 % of control.

Q: What about the T/C (dose: 8.0 mg/kg/injection, schedule: Q07DX002 (ip), vehicle: saline) of the same compound?
A: The T/C was 26 % of control and 31 % of control.

Q: What about the T/C (dose: 8.0 mg/kg/injection, schedule: Q07DX003 (ip), vehicle: alkali diluted with saline) of the same compound?
A: The T/C was 8 % of control and 11 % of control and 18 % of control.

Q: What about the T/C (dose: 8.0 mg/kg/injection, schedule: Q07DX003 (ip), vehicle: saline) of the same compound?
A: Its T/C is 13 % of control and 37 % of control.

Q: What about the T/C (dose: 12.5 mg/kg/injection, schedule: Q07DX002 (ip), vehicle: alkali diluted with saline) of the same compound?
A: Its T/C is 9 % of control.

Q: And the T/C (dose: 16.0 mg/kg/injection, schedule: Q07DX002 (ip), vehicle: alkali diluted with saline)?
A: Its T/C is 20 % of control.

Q: And the T/C (dose: 16.0 mg/kg/injection, schedule: Q07DX002 (ip), vehicle: saline)?
A: The T/C was 17 % of control and 24 % of control.

Q: What about the T/C (dose: 16.0 mg/kg/injection, schedule: Q07DX003 (ip), vehicle: alkali diluted with saline) of the same compound?
A: The T/C was 2 % of control and 8 % of control.

Q: And the T/C (dose: 16.0 mg/kg/injection, schedule: Q07DX003 (ip), vehicle: saline)?
A: Its T/C is 4 % of control and 15 % of control.

Q: And the T/C (dose: 25.0 mg/kg/injection, schedule: Q07DX002 (ip), vehicle: alkali diluted with saline)?
A: The T/C was 18 % of control.

Q: And the T/C (dose: 32.0 mg/kg/injection, schedule: Q07DX002 (ip), vehicle: alkali diluted with saline)?
A: Its T/C is 14 % of control.

Q: And the T/C (dose: 32.0 mg/kg/injection, schedule: Q07DX003 (ip), vehicle: alkali diluted with saline)?
A: The T/C was 2 % of control.

Q: What about the T/C (dose: 32.0 mg/kg/injection, schedule: Q07DX003 (ip), vehicle: saline) of the same compound?
A: Its T/C is 9 % of control.

Q: And the T/C (dose: 50.0 mg/kg/injection, schedule: Q07DX002 (ip), vehicle: alkali diluted with saline)?
A: Its T/C is 16 % of control.

Q: For `CN1c2c(nc(N)[nH]c2=O)NCC1CCNc1ccc(C(=O)NC(CCC(=O)O)C(=O)O)cc1` (configuration not stated), which T/C (dose: 50.0 mg/kg/injection, schedule: Q07DX003 (ip), vehicle: saline) is on record?
A: Its T/C is 155 % of control.

Q: What about the T/C (dose: 100.0 mg/kg/injection, schedule: Q07DX003 (ip), vehicle: saline) of the same compound?
A: The T/C was 64 % of control.

Q: And the T/C (dose: 200.0 mg/kg/injection, schedule: Q07DX003 (ip), vehicle: saline)?
A: The T/C was 99 % of control.

Q: And the T/C (dose: 400.0 mg/kg/injection, schedule: Q07DX003 (ip), vehicle: saline)?
A: The T/C was 98 % of control.

Q: What about the T/C (dose: 800.0 mg/kg/injection, schedule: Q07DX003 (ip), vehicle: saline) of the same compound?
A: Its T/C is 92 % of control.

Q: How did the T/C (dose: 5.0 mg/kg/injection, schedule: Q01DX008 (ip), vehicle: water) turn out when `Cc1c(-c2ccc(-c3ccccc3F)cc2)nc2ccc(F)cc2c1C(=O)O` was run?
A: The T/C was 24 % of control.

Q: What about the T/C (dose: 10.0 mg/kg/injection, schedule: Q01DX008 (ip), vehicle: water) of the same compound?
A: Its T/C is 5 % of control.

Q: And the T/C (dose: 20.0 mg/kg/injection, schedule: Q01DX008 (ip), vehicle: water)?
A: The T/C was 16 % of control.

Q: For `C=C(C)[C@H]1Cc2c(ccc3c2O[C@@H]2COc4cc(OC)c(OC)cc4[C@@H]2C3=O)O1`, which T/C (dose: 2.0 mg/kg/injection, schedule: Q07DX003 (ip), vehicle: saline with Tween-80) is on record?
A: The T/C was 230 % of control.

Q: What about the T/C (dose: 8.0 mg/kg/injection, schedule: Q07DX003 (ip), vehicle: saline with Tween-80) of the same compound?
A: The T/C was 98 % of control.

Q: Which results are given for `NC1=NC(O)C=C1` (configuration not stated)?
A: T/C (dose: 7.5 mg/kg/injection, schedule: Q07DX002 (ip), vehicle: saline): 90 % of control; T/C (dose: 15.0 mg/kg/injection, schedule: Q07DX002 (ip), vehicle: saline): 103 % of control; T/C (dose: 30.0 mg/kg/injection, schedule: Q07DX002 (ip), vehicle: saline): 100 % of control; T/C (dose: 60.0 mg/kg/injection, schedule: Q07DX002 (ip), vehicle: saline): 87 % of control
